Assay results reported in patent US20230373985A1 (Origenis Gmbh, priority 2020, published 2023).

What was measured:
[1] = biological target: T1, wt human JAK1, catalytic site (Homo sapiens, UniProt P23458); assay: HTRF KinEASE assay, JAK1; type: biochemical; settings: 2.5 μM ATP; read-out: IC50, Activity Toward JAK1
T1 construct: wt human JAK1, catalytic site; purchased ThermoFisher
How it was run: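 Compounds in DMSO dilution were mixed with kinase, biotin-TK substrate and ATP and reacted for ≥30 min at room temperature. Detection reagents (antibody, streptavidin-XL665) were read 60 min later as HTRF, with emission ratios analysed per KinEASE protocol.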

[2] = biological target: T2, wt human TYK2, catalytic site (Homo sapiens, UniProt P29597); assay: HTRF KinEASE assay, TYK2; type: biochemical; settings: 1 μM ATP; read-out: IC50, Activity Toward TYK2
T2 construct: wt human TYK2, catalytic site; purchased SignalChem
T2 sequence (P29597 897-1176 limits assumed): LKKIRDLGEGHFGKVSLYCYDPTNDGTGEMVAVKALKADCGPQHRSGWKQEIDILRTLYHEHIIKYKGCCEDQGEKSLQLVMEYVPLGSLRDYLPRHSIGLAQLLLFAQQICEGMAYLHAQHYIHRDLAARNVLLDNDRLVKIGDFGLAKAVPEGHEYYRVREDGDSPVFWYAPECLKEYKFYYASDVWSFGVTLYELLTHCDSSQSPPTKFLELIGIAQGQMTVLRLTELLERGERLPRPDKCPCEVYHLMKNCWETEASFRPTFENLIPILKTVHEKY
How it was run: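 Kinase reaction run at room temperature for at least 30 min: 2 nM TYK2 with 1 μM ATP, or 1 nM JAK2 with 100 μM ATP, each with 1 μM biotin-TK substrate. Phosphorylation detected by HTRF (60 min antibody/XL665) and evaluated from emission ratios.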

T1 sequence (P23458 875-1153 limits assumed): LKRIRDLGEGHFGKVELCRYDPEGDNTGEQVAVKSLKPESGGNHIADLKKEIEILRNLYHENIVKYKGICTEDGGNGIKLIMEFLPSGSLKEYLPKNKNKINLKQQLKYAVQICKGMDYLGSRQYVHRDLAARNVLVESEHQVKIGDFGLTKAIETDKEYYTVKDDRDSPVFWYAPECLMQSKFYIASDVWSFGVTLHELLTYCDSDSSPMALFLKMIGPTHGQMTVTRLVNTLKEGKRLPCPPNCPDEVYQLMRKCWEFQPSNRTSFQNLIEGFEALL

IC50 [1] [nM] | IC50 [2] [nM] | Compound
100 to 1000 | 100 to 1000 | Cc1cc(C)n(-c2ccc(Nc3cn(-c4c(Cl)cccc4Cl)nc3C(N)=O)cn2)n1 [compound 398, 1-(2,6-dichlorophenyl)-4-((6-(3,5-dimethyl-1H-pyrazol-1-yl)pyridin-3-yl)amino)-1H-pyrazole-3-carboxamide]
100 to 1000 | 100 to 1000 | NC(=O)c1nn(-c2c(Cl)cccc2Cl)cc1Nc1cnc(C(=O)N2CCOCC2)cn1 [compound 401, 1-(2,6-dichlorophenyl)-4-((5-(morpholine-4-carbonyl)pyrazin-2-yl)amino)-1H-pyrazole-3-carboxamide]
100 to 1000 | 100 to 1000 | CN1CCN(C(=O)c2cnc(Nc3cn(-c4c(Cl)cccc4Cl)nc3C(N)=O)cn2)CC1 [compound 402, 1-(2,6-dichlorophenyl)-4-((5-(4-methylpiperazine-1-carbonyl)pyrazin-2-yl)amino)-1H-pyrazole-3-carboxamide]
100 to 1000 | 100 to 1000 | CN1CCC(Oc2ccc(Nc3cn(-c4c(Cl)cccc4Cl)nc3C(N)=O)cn2)CC1 [compound 405, 1-(2,6-dichlorophenyl)-4-((6-((1-methylpiperidin-4-yl)oxy)pyridin-3-yl)amino)-1H-pyrazole-3-carboxamide]
10 to 100 | < 10 | CCc1cnnn1-c1ccc(Nc2cn(-c3c(Cl)cccc3Cl)nc2C(N)=O)cc1 [compound 411, 1-(2,6-dichlorophenyl)-4-((4-(5-ethyl-1H-1,2,3-triazol-1-yl)phenyl)amino)-1H-pyrazole-3-carboxamide]
10 to 100 | 10 to 100 | NC(=O)c1nn(-c2c(Cl)cc(F)cc2Cl)cc1Nc1ccc(C(=O)N2CCOCC2)cc1 [compound 412, 1-(2,6-dichloro-4-fluorophenyl)-4-((4-(morpholine-4-carbonyl)phenyl)amino)-1H-pyrazole-3-carboxamide]
10 to 100 | < 10 | CN1CCC(N(C)C(=O)c2ccc(Nc3cn(-c4c(Cl)cc(F)cc4Cl)nc3C(N)=O)cc2)CC1 [compound 413, 1-(2,6-dichloro-4-fluorophenyl)-4-((4-(methyl(1-methylpiperidin-4-yl)carbamoyl)phenyl)amino)-1H-pyrazole-3-carboxamide]
10 to 100 | 10 to 100 | COCCNC(=O)c1ccc(Nc2cn(-c3c(Cl)cccc3Cl)nc2C(N)=O)cc1 [compound 419, 1-(2,6-dichlorophenyl)-4-((4-((2-methoxyethyl)carbamoyl)phenyl)amino)-1H-pyrazole-3-carboxamide]
100 to 1000 | 100 to 1000 | COCCCNC(=O)c1ccc(Nc2cn(-c3c(Cl)cccc3Cl)nc2C(N)=O)cc1 [compound 420, 1-(2,6-dichlorophenyl)-4-((4-((3-methoxypropyl)carbamoyl)phenyl)amino)-1H-pyrazole-3-carboxamide]
100 to 1000 | 100 to 1000 | NC(=O)c1nn(-c2c(Cl)cccc2Cl)cc1Nc1ccc(N2CCOCC2)cn1 [compound 428, 1-(2,6-dichlorophenyl)-4-((5-morpholinopyridin-2-yl)amino)-1H-pyrazole-3-carboxamide]
100 to 1000 | 10 to 100 | Cc1cccc2nnc(-c3ccc(Nc4cn(-c5c(Cl)cccc5Cl)nc4C(N)=O)nc3)n12 [compound 429, 1-(2,6-dichlorophenyl)-4-((5-(5-methyl-[1,2,4]triazolo[4,3-a]pyridin-3-yl)pyridin-2-yl)amino)-1H-pyrazole-3-carboxamide]
100 to 1000 | 100 to 1000 | Cc1ncnn1-c1ccc(Nc2cn(-c3c(Cl)cccc3Cl)nc2C(N)=O)nc1 [compound 430, 1-(2,6-dichlorophenyl)-4-((5-(5-methyl-1H-1,2,4-triazol-1-yl)pyridin-2-yl)amino)-1H-pyrazole-3-carboxamide]
10 to 100 | 100 to 1000 | CCn1ncnc1-c1ccc(Nc2cn(-c3c(Cl)cccc3Cl)nc2C(N)=O)nc1 [compound 431, 1-(2,6-dichlorophenyl)-4-((5-(1-ethyl-1H-1,2,4-triazol-5-yl)pyridin-2-yl)amino)-1H-pyrazole-3-carboxamide]
10 to 100 | 100 to 1000 | Cc1cnnn1-c1ccc(Nc2cn(-c3c(Cl)cccc3Cl)nc2C(N)=O)nc1 [compound 432, 1-(2,6-dichlorophenyl)-4-((5-(5-methyl-1H-1,2,3-triazol-1-yl)pyridin-2-yl)amino)-1H-pyrazole-3-carboxamide]
10 to 100 | 10 to 100 | Cn1cc(C(F)(F)F)nc1-c1ccc(Nc2cn(-c3c(Cl)cccc3Cl)nc2C(N)=O)nc1 [compound 433, 1-(2,6-dichlorophenyl)-4-((5-(1-methyl-4-(trifluoromethyl)-1H-imidazol-2-yl)pyridin-2-yl)amino)-1H-pyrazole-3-carboxamide]
10 to 100 | 10 to 100 | Cc1nnnn1-c1ccc(Nc2cn(-c3c(Cl)cccc3Cl)nc2C(N)=O)nc1 [compound 435, 1-(2,6-dichlorophenyl)-4-((5-(5-methyl-1H-tetrazol-1-yl)pyridin-2-yl)amino)-1H-pyrazole-3-carboxamide]
100 to 1000 | 10 to 100 | NC(=O)c1nn(-c2c(Cl)cccc2Cl)cc1Nc1ccc(-n2nncc2C(F)(F)F)cc1 [compound 438, 1-(2,6-dichlorophenyl)-4-((4-(5-(trifluoromethyl)-1H-1,2,3-triazol-1-yl)phenyl)amino)-1H-pyrazole-3-carboxamide]
10 to 100 | 100 to 1000 | NC(=O)c1nn(-c2c(Cl)cccc2Cl)cc1Nc1ccc(C(=O)N2CC(O)C2)cn1 [compound 439, 1-(2,6-dichlorophenyl)-4-((5-(3-hydroxyazetidine-1-carbonyl)pyridin-2-yl)amino)-1H-pyrazole-3-carboxamide]
10 to 100 | 100 to 1000 | NC(=O)c1nn(-c2c(Cl)cccc2Cl)cc1Nc1ccc(CC(=O)N2CCOCC2)nc1 [compound 440, 1-(2,6-dichlorophenyl)-4-((6-(2-morpholino-2-oxoethyl)pyridin-3-yl)amino)-1H-pyrazole-3-carboxamide]
100 to 1000 | 100 to 1000 | NC(=O)c1nn(-c2c(Cl)cccc2Cl)cc1Nc1ccc(CC(=O)N2CC(F)C2)nc1 [compound 441, 1-(2,6-dichlorophenyl)-4-((6-(2-(3-fluoroazetidin-1-yl)-2-oxoethyl)pyridin-3-yl)amino)-1H-pyrazole-3-carboxamide]
100 to 1000 | 100 to 1000 | CN(C)C1CCN(C(=O)c2ccc(Nc3cn(-c4c(Cl)cccc4Cl)nc3C(N)=O)nc2)CC1 [compound 442, 1-(2,6-dichlorophenyl)-4-((5-(4-(dimethylamino)piperidine-1-carbonyl)pyridin-2-yl)amino)-1H-pyrazole-3-carboxamide]
10 to 100 | 10 to 100 | NC(=O)c1nn(-c2c(Cl)cccc2Cl)cc1Nc1ccc(C(=O)N2CC[C@@H](F)C2)cn1 [compound 443, (R)-1-(2,6-dichlorophenyl)-4-((5-(3-fluoropyrrolidine-1-carbonyl)pyridin-2-yl)amino)-1H-pyrazole-3-carboxamide]
10 to 100 | 10 to 100 | N#CC1CN(C(=O)c2ccc(Nc3cn(-c4c(Cl)cccc4Cl)nc3C(N)=O)nc2)C1 [compound 444, 4-((5-(3-cyanoazetidine-1-carbonyl)pyridin-2-yl)amino)-1-(2,6-dichlorophenyl)-1H-pyrazole-3-carboxamide]
10 to 100 | 10 to 100 | Cn1nnnc1-c1ccc(Nc2cn(-c3c(Cl)cccc3Cl)nc2C(N)=O)nc1 [compound 445, 1-(2,6-dichlorophenyl)-4-((5-(1-methyl-1H-tetrazol-5-yl)pyridin-2-yl)amino)-1H-pyrazole-3-carboxamide]
10 to 100 | 100 to 1000 | CN1CCCN(C(=O)c2ccc(Nc3cn(-c4c(Cl)cccc4Cl)nc3C(N)=O)nc2)CC1 [compound 448, 1-(2,6-dichlorophenyl)-4-((5-(4-methyl-1,4-diazepane-1-carbonyl)pyridin-2-yl)amino)-1H-pyrazole-3-carboxamide]
100 to 1000 | 100 to 1000 | NC(=O)c1nn(-c2c(Cl)cccc2Cl)cc1Nc1ccc(C(=O)N2CC(F)C2)cn1 [compound 449, 1-(2,6-dichlorophenyl)-4-((5-(3-fluoroazetidine-1-carbonyl)pyridin-2-yl)amino)-1H-pyrazole-3-carboxamide]
100 to 1000 | 10 to 100 | NC(=O)c1nn(-c2c(Cl)cccc2Cl)cc1Nc1ccc(CN2CCS(=O)(=O)CC2)nc1 [compound 455, 1-(2,6-dichlorophenyl)-4-((6-((1,1-dioxidothiomorpholino)methyl)pyridin-3-yl)amino)-1H-pyrazole-3-carboxamide]
10 to 100 | < 10 | N#Cc1cccc(Cl)c1-n1cc(Nc2ccc(C(=O)N3CCOCC3)cc2)c(C(N)=O)n1 [compound 458, 1-(2-chloro-6-cyanophenyl)-4-((4-(morpholine-4-carbonyl)phenyl)amino)-1H-pyrazole-3-carboxamide]

Compound | IC50 [1] [nM] | IC50 [2] [nM]
NC(=O)c1nn(-c2c(Cl)cccc2Cl)cc1Nc1ccc(-c2nnc3cncc(Cl)n23)nc1 [compound 447, 4-((6-(5-chloro-[1,2,4]triazolo[4,3-a]pyrazin-3-yl)pyridin-3-yl)amino)-1-(2,6-dichlorophenyl)-1H-pyrazole-3-carboxamide] | 10 to 100 | 10 to 100
